Laboratory results: article PMC9344893 (ACS Medicinal Chemistry Letters, 2022)

Legend:
A549/ACE2/TMPRSS2 cells = assay: Cell viability assay; format: cell-based
SARS-CoV-2 Nsp14 MTase = SARS-CoV-2 Nsp14 MTase (Severe acute respiratory syndrome coronavirus 2, UniProt P0DTD1); format: biochemical
panel of 10 human MTases = assay: Human MTase screening, panel as a whole; format: biochemical; conditions: 10 μM
[1] = tested on: SARS-CoV-2 isolate USA-WA1/2020

## CC(=O)O[C@@H]1[C@H](OC(C)=O)[C@@H](CNS(=O)(=O)c2ccc3ccccc3c2)O[C@H]1n1cnc2c(N)ncnc21 [Compound 8]
A549/ACE2/TMPRSS2 cells
  cytotoxicity at 100 μM (in words): minimal cytotoxicity

## CC(=O)Nc1ncnc2c1ncn2[C@@H]1O[C@H](CNS(=O)(=O)c2ccc3ccccc3c2)[C@@H](OC(C)=O)[C@H]1OC(C)=O [Compound 9]
A549/ACE2/TMPRSS2 cells
  cytotoxicity at 100 μM (in words): minimal cytotoxicity

## Nc1ncnc2c1ncn2[C@@H]1O[C@H](CNS(=O)(=O)c2ccc3nc(Cl)ccc3c2)[C@@H](O)[C@H]1O [Compound 5]
SARS-CoV-2 Nsp14 MTase
  fold reduction in inhibitory activity: 7 fold

## Nc1ncnc2c1ncn2[C@@H]1O[C@H](CNS(=O)(=O)c2ccc3ccccc3c2)[C@@H](O)[C@H]1O [Compound 3]
SARS-CoV-2 Nsp14 MTase
  fold more active than compound 1: > 150 fold
Panel of 10 human MTases
  inhibition of the set of human MTases (in words): minimal inhibition

## Nc1ncnn2c([C@@H]3O[C@H](CNS(=O)(=O)c4ccc5ccccc5c4)[C@@H](O)[C@H]3O)ccc12 [Compound 10]
[1]; A549 AT cells
  therapeutic index (TI = CC50/EC50): greater than 139

## Nc1ncnc2c1ncn2[C@@H]1O[C@H](C[C@@H](N)CC[C@H](N)C(=O)O)[C@@H](O)[C@H]1O [sinefungin, reference compound]
[1]
  antiviral activity (in words): failed to show any activity
